One compound from patent publication US12202840B2, “Compounds for the treatment or alleviation of disorders associated with Tau aggregates” (AC Immune SA, priority 2018, dated 2025) can be followed below.

This experiment relates to rTg4510 mice. The experiment is described as follows: Cortex size (cortical atrophy), study of Example 2. In kind it is in vivo. Particulars: once daily by gavage, 7 and 20 mg/kg, statistical significance at the higher dose, FIG. 6A. How it is done: Double transgenic rTg4510 mice are an aggressive Tauopathy model expressing the full-length human Tau carrying the P301L mutation (Tau4R0N-P301L) under the control of the tetracycline-inducible CaMKII promoter (Ramsden et al., 2005). Wild-type animals and single transgenic mice expressing only the tetracycline-controlled transactivator (tTA) were used as genotype controls. Mice were treated and tested. The study comprised 4 treatment groups (n=15 female mice/group) with the following group distribution (see Table 6). Compound of the invention or vehicle control were administered once daily by gavage for 12 weeks starting at the age of 5.5 weeks. The Morris Water Maze (MWM) behavioral test was performed after 12.5 weeks of treatment over 5 consecutive days. During MWM testing daily dosing was continued. Behavioral testing (MWM) and biochemical quantification of sarkosyl-insoluble Tau were performed on all mice (n=15 mice/group). Measurement of cortical atrophy and histology for Iba1 were performed on 10 mice/group.
After behavioral testing, mice were deeply anesthetized by standard injectable anesthesia and transcardially perfused with cold PBS. Brains were then removed and hemi-sagitally hemisected. […] A systematic random set of sections from seven sagittal levels per animal was used to quantify the cortex size.

As to `CN(C)[C@@H]1CCc2c(c3ccc(Nc4ccc5sc(N6CCOCC6)nc5c4)nc3n2C)C1` [Example 2], the cortex size result is “dose-dependent increase”.
